These results are taken from patent US20210292320A1, “FUNCTIONALIZED HETEROCYCLIC COMPOUNDS AS ANTIVIRAL AGENTS” (Enanta Pharmaceuticals, Inc., priority 2020, published 2021).

Data set [1] deals with HBV viral product accumulation in 2.2.15 cells. As to the kind of experiment: HBV antiviral activity in 2.2.15 cells (qPCR of cell lysates or HBsAg/HBeAg ELISA of supernatants, day 5). The class given is cell-based. The conditions noted are these: Hepatitis B virus, 120 h, 5 days treatment, 0.5% DMSO, 50% reduction of viral product accumulation relative to no drug controls, irrespective of readout. The method, then:
2.2.15 cells are passaged upon attaining confluency in DMEM/F12 media in the presence of 10% FBS, Penn/Strep, and 250 ug/mL G418. Novel compounds are 5 fold serially diluted in DMSO and added to 96 well plates containing 35,000 cells/well at a 1:200 dilution so that the final concentration of DMSO is 0.5%. On day 5, post treatment cell lysates and supernatants are harvested for analysis.
Cells are lysed using Agilent Sidestep Lysis buffer, diluted 1:100 and quantified via quantitative real time PCR. Commercially available ELISA kits are used to quantitate the viral proteins HBsAg (Alpco) or HBeAg (US Biological) by following the manufacturer's recommended protocol after diluting samples to match the linear range of their respective assays. Irrespective of readout, compound concentrations that reduce viral product accumulation in the cell lysates or supernatants by 50% relative to no drug controls (EC50) are reported; EC50 ranges are as follows: A<0.1 μM; B 0.2-1 μM; C>1 μM.
On the technique in general: Quantitative PCR measures a nucleic acid by following its amplification.

Data set [2] can be described thus: Compound induced cellular toxicity in HepG2 cells (ATPlite 1Step, total ATP levels, day 3). The class given is cell-based. The conditions noted are these: human, three days, 0.5% DMSO, 50% reduction of total ATP levels relative to no drug controls. The method, then:
At day 3, post seeding cells are treated with ATPlite 1Step according to the manufacturer's instructions.

Broadly, the EC50 is the concentration giving half of the maximal effect. Low values mean higher potency in that assay, high ones lower potency in that assay. In data set [1], `CC(C)(C)[C@@H]1Cn2nc(-c3ccc(F)cc3)cc2-c2cc(O)c(C(=O)O)cc21` [Example 1, (S)-6-(tert-butyl)-2-(4-fluorophenyl)-9-hydroxy-5,6-dihydropyrazolo[5,1-a]isoquinoline-8-carboxylic acid] returned an EC50 of over 1000 nM.

The compound `CC(C)(C)[C@@H]1Cn2nc(-c3ccccc3)cc2-c2cc(O)c(C(=O)O)cc21` [Example 2, (S)-6-(tert-butyl)-9-hydroxy-2-phenyl-5,6-dihydropyrazolo[5,1-a]isoquinoline-8-carboxylic acid] had an EC50 in data set [1] of over 1000 nM.

Take `CC(C)(C)[C@@H]1Cn2nc(-c3ccccc3F)cc2-c2cc(O)c(C(=O)O)cc21` [Example 3, (S)-6-(tert-butyl)-2-(2-fluorophenyl)-9-hydroxy-5,6-dihydropyrazolo[5,1-a]isoquinoline-8-carboxylic acid]: the EC50 in data set [1] was over 1000 nM.

`CC(C)(C)[C@@H]1Cn2nc(-c3cccc(F)c3)cc2-c2cc(O)c(C(=O)O)cc21` [Example 4, (S)-6-(tert-butyl)-2-(3-fluorophenyl)-9-hydroxy-5,6-dihydropyrazolo[5,1-a]isoquinoline-8-carboxylic acid]: the EC50 in data set [1] was over 1000 nM.

As to `CC(C)(C)[C@@H]1Cn2nc(-c3cccc(F)c3)c(-c3cccc(F)c3)c2-c2cc(O)c(C(=O)O)cc21` [Example 5, (S)-6-(tert-butyl)-1,2-bis(3-fluorophenyl)-9-hydroxy-5,6-dihydropyrazolo[5,1-a]isoquinoline-8-carboxylic acid], the EC50 in data set [1] is over 1000 nM.

One may read the CC50 as the concentration that lowers cell viability or growth by half. The compound `CC(C)(C)[C@@H]1Cn2nc(-c3ccc(F)cc3)c(-c3ccc(F)cc3)c2-c2cc(O)c(C(=O)O)cc21` [Example 6, (S)-6-(tert-butyl)-1,2-bis(4-fluorophenyl)-9-hydroxy-5,6-dihydropyrazolo[5,1-a]isoquinoline-8-carboxylic acid] registered an EC50 in data set [1] of under 100 nM. This compound also showed a CC50 at 3 days in data set [2] of over 25000 nM.

With `CC(C)(C)[C@@H]1Cn2nc(-c3ccccc3F)c(-c3ccccc3F)c2-c2cc(O)c(C(=O)O)cc21` [Example 7, (S)-6-(tert-butyl)-1,2-bis(2-fluorophenyl)-9-hydroxy-5,6-dihydropyrazolo[5,1-a]isoquinoline-8-carboxylic acid], the EC50 in data set [1] is under 100 nM. Also, the CC50 at 3 days in data set [2] was over 25000 nM.

`CC(C)(C)[C@@H]1Cn2nc(-c3ccccc3)c(-c3ccccc3)c2-c2cc(O)c(C(=O)O)cc21` [Example 8, (S)-6-(tert-butyl)-9-hydroxy-1,2-diphenyl-5,6-dihydropyrazolo[5,1-a]isoquinoline-8-carboxylic acid]: the EC50 in data set [1] was under 100 nM. Further, in data set [2], the CC50 at 3 days is over 25000 nM.

As for `CC(C)(C)[C@@H]1Cn2nc(-c3ccoc3)c(-c3ccoc3)c2-c2cc(O)c(C(=O)O)cc21` [Example 9, (S)-6-(tert-butyl)-1,2-di(furan-3-yl)-9-hydroxy-5,6-dihydropyrazolo[5,1-a]isoquinoline-8-carboxylic acid], the EC50 in data set [1] is over 1000 nM.
